Ten compounds from patent US8269026B2, “Lupane derivatives useful for treating HIV” (priority 2008, dated 2012) can be followed below.

Usually IC50 stands for the concentration needed to halve the response being measured.

This experiment concerns HIV-1 (HIVIIIB) replication in MT2 cell line. The experiment in a line: HIV-1 replication in MT2 cell line with and without 30% human serum (viral RT activity in supernatant). As to conditions: Human immunodeficiency virus 1, MT2 cells, with 30% human serum, average IC50 if tested more than once, read-out: MT2 (HIVIIIB) with HS 30% IC50 range. In kind it is cell-based. Here is the method: HIV-1 Replication in MT2 cell line with and without 30% human serum: The cells are infected at a Multiciplicity of Infection (MOI) of 0.5 for 3 h and then washed twice with complete media to remove residual virus. Cells are then resuspended at 0.5×10^6/ml in complete medium (RPMI, 10% FBS, 1% sodium pyruvate), and seeded into 96-well plates (6.25×10^4/well). The cells are cultured in the presence or absence of various concentrations of test compounds in serial dilutions for 3 days at 37° C. The test compounds are serially diluted in complete medium supplemented or not with 30% human serum. After 3 days, 100 μL of cultured medium with cells are replaced with 120 μL of freshly diluted test compounds in complete medium containing or not 30% Human serum. The level of HIV-1 replication is determined at days 5 after infection by the presence of viral RT activity in harvested supernatant fluid. The IC50 and IC90 values for the virus replication are determined by using GRAPHPAD PRISM software.
The IC50 of the compounds tested in accordance with the HIV replication activity assay MT2 (HIVIIIB) are represented in Table 1.
With `CC(C)C1=C2C3CCC4[C@@]5(C)CC[C@H](OC(=O)CC(C)(C)C(=O)O)C(C)(C)C5CC[C@@]4(C)[C@]3(C)CC[C@@]2(NC(=O)NCC2CCN(C)CC2)CC1=O` (stereo partly drawn) [17-28, 3β-O-(3′,3′-Dimethylsuccinyl)-17β-[N′-(1-methyl-piperidin-4-ylmethyl)-ureido]-21-oxolup-18-ene], the half-maximal inhibitory concentration (IC50) is > 1000 nM.

For `CC(C)C1=C2[C@H]3CC[C@@H]4[C@@]5(C)CC[C@H](OC(=O)CC(C)(C)C(=O)O)C(C)(C)[C@@H]5CC[C@@]4(C)[C@]3(C)CC[C@@]2(NC(=O)N2CCN(C(C)C)CC2)CC1=O` [17-29, 3β-O-(3′,3′-Dimethylsuccinyl)-17β-[(4-isopropyl-piperazine-1-carbonyl)-amino]-21-oxolup-18-ene], the IC50 was < 199 nM.

As to `CC(C)C1=C2C3CCC4[C@@]5(C)CC[C@H](OC(=O)CC(C)(C)C(=O)O)C(C)(C)C5CC[C@@]4(C)[C@]3(C)CC[C@@]2(NC(=O)NC2CCN(C)CC2)CC1=O` (stereo partly drawn) [17-30, 3β-O-(3′,3′-Dimethylsuccinyl)-17β-[N′-(1-methyl-piperidin-4-yl)-ureido]-21-oxolup-18-ene], the IC50 was < 199 nM.

Regarding `CC(C)C1=C2C3CCC4[C@@]5(C)CC[C@H](OC(=O)CC(C)(C)C(=O)O)C(C)(C)C5CC[C@@]4(C)[C@]3(C)CC[C@@]2(NC(=O)NCc2ccncc2)CC1=O` (stereo partly drawn) [17-31, 3β-O-(3′,3′-Dimethylsuccinyl)-17β-[N′-(pyridin-4-ylmethyl)ureido]-21-oxolup-18-ene], the half-inhibitory concentration (IC50) was < 199 nM.

Regarding `CC(C)C1=C2[C@H]3CC[C@@H]4[C@@]5(C)CC[C@H](OC(=O)CC(C)(C)C(=O)O)C(C)(C)[C@@H]5CC[C@@]4(C)[C@]3(C)CC[C@@]2(NC(=O)Nc2ncccn2)CC1=O` [17-32, 3β-O-(3′,3′-Dimethylsuccinyl)-17β-(N′-pyrimidin-2-yl-ureido)-21-oxolup-18-ene], the 50% inhibitory concentration (IC50) was < 199 nM.

For the compound `CC(C)C1=C2[C@H]3CC[C@@H]4[C@@]5(C)CC[C@H](OC(=O)CC(C)(C)C(=O)O)C(C)(C)[C@@H]5CC[C@@]4(C)[C@]3(C)CC[C@@]2(NC(=O)NC2CN(C(=O)OC(C)(C)C)C2)CC1=O` [17-33, 3β-O-(3′,3′-Dimethylsuccinyl)-17β-[N′-(1-tert-butyloxycarbonyl-azetidin-3-yl)-ureido]-21-oxolup-18-ene], the IC50 is < 199 nM.

With `CC(C)C1=C2[C@H]3CC[C@@H]4[C@@]5(C)CC[C@H](OC(=O)CC(C)(C)C(=O)O)C(C)(C)[C@@H]5CC[C@@]4(C)[C@]3(C)CC[C@@]2(NC(=O)NC[C@@H]2CCCN2C(=O)OC(C)(C)C)CC1=O` [17-34, 3β-O-(3′,3′-Dimethylsuccinyl)-17β-[(3-(S)-1-tert-butyloxycarbonyl-pyrrolidin-2-ylmethyl)-ureido]-21-oxolup-18-ene], the IC50 is < 199 nM.

`CC(C)C1=C2[C@H]3CC[C@@H]4[C@@]5(C)CC[C@H](OC(=O)CC(C)(C)C(=O)O)C(C)(C)[C@@H]5CC[C@@]4(C)[C@]3(C)CC[C@@]2(NC(=O)NC2CNC2)CC1=O` [17-35]: the IC50 lay within 200 to 999 nM.

`CC(C)C1=C2C3CCC4[C@@]5(C)CC[C@H](OC(=O)CC(C)(C)C(=O)O)C(C)(C)C5CC[C@@]4(C)[C@]3(C)CC[C@@]2(NC(=O)N2CCC(N(C)C(=O)OC(C)(C)C)CC2)CC1=O` (stereo partly drawn) [17-36, 3β-O-(3′,3′-Dimethylsuccinyl)-17β-[(4-(tert-butyloxycarbonyl-methyl-amino)-piperidine-1-carbonyl)-amino]-21-oxolup-18-ene]: the IC50 was < 199 nM.

For `CC(C)C1=C2[C@H]3CC[C@@H]4[C@@]5(C)CC[C@H](OC(=O)CC(C)(C)C(=O)O)C(C)(C)C5CC[C@@]4(C)[C@]3(C)CC[C@@]2(NC(=O)Nc2cnn(C)c2)CC1=O` (stereo partly drawn) [17-37, 3β-O-(3′,3′-Dimethylsuccinyl)-17β-[N′-(1-methyl-1H-pyrazol-4-yl)ureido]-21-oxolup-18-ene], the 50% inhibitory concentration (IC50) was < 199 nM.
